Test results as given in patent US6737383B1, “Herbicidal oxadiazolidines” (priority 1999, dated 2004).

Columns and labels:
purple nutsedge = experiment: Test B pre/postemergence purple nutsedge; assay type: in vivo, Cyperus rotundus
How it was run: (§1)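 Test chemicals in a non-phytotoxic solvent mixture with surfactant were sprayed preemergence onto planted seeds and postemergence onto plants 2 to 18 cm tall (1- to 4-leaf stage). After twelve to sixteen days in a greenhouse, injury was visually rated against untreated controls from 0 (no effect) to 10 (complete control).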

wild oat = experiment: Test B pre/postemergence wild oat; assay type: in vivo, Avena fatua
How it was run: as §1

rape = experiment: Test B pre/postemergence rape; assay type: in vivo, Brassica napus
How it was run: as §1

smallflower flatsedge = experiment: Test B flood test smallflower flatsedge; assay type: in vivo, Cyperus difformis
How it was run: (§2)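 Each value is a visual injury score relative to controls, with 10 meaning complete control and 0 no effect. Evaluation took place twelve to sixteen days after the 2-leaf-stage plants were treated and kept in the greenhouse.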

pigweed = experiment: Test B pre/postemergence pigweed; assay type: in vivo, Amaranthus retroflexus
How it was run: as §1

crabgrass = experiment: Test B pre/postemergence crabgrass; assay type: in vivo, Digitaria sanguinalis
How it was run: as §1

corn = experiment: Test B pre/postemergence corn; assay type: in vivo, Zea mays
How it was run: as §1

duck salad = experiment: Test B flood test duck salad; assay type: in vivo, Heteranthera limosa
How it was run: as §2

sugar beet = experiment: Test B pre/postemergence sugar beet; assay type: in vivo, Beta vulgaris
How it was run: as §1

velvetleaf = experiment: Test B pre/postemergence velvetleaf; assay type: in vivo, Abutilon theophrasti
How it was run: as §1

cocklebur = experiment: Test B pre/postemergence cocklebur; assay type: in vivo, Xanthium strumarium
How it was run: as §1

wheat = experiment: Test B pre/postemergence wheat; assay type: in vivo, Triticum aestivum
How it was run: as §1

surinam grass = experiment: Test B pre/postemergence surinam grass; assay type: in vivo, Brachiaria decumbens
How it was run: as §1

bedstraw = experiment: Test B pre/postemergence bedstraw; assay type: in vivo, Galium aparine
How it was run: as §1

morningglory = experiment: Test B pre/postemergence morningglory; assay type: in vivo, Ipomoea hederacea
How it was run: as §1

blackgrass = experiment: Test B pre/postemergence blackgrass; assay type: in vivo, Alopecurus myosuroides
How it was run: as §1

[1] = Postemergence, Rate 125 g/ha, scale of 0 to 10 where 0 is no effect and 10 is complete control
[2] = Preemergence, Rate 31 g/ha, visual rating, scale 0 to 10 (0 no effect, 10 complete control)
[3] = Preemergence, Rate 62 g/ha, scale 0 to 10 (0 no effect, 10 complete control)
[4] = Preemergence, Rate 125 g/ha, 0 is no effect, 10 is complete control
[5] = Preemergence, Rate 250 g/ha, scale 0 to 10, 0 is no effect, 10 is complete control
[6] = Preemergence, Rate 500 g/ha, scale 0 to 10 (0 no effect, 10 complete control)
[7] = Rate 31 g/ha, Postemergence, scale 0 to 10
[8] = Rate 62 g/ha, Postemergence, scale of 0 to 10 where 0 is no effect and 10 is complete control
[9] = Rate 250 g/ha, Postemergence, scale 0 to 10, 0 is no effect, 10 is complete control
[10] = Rate 500 g/ha, Postemergence, scale 0 to 10
[11] = Postemergence (flood test species), Rate 125 g/ha, scale of 0 to 10 where 0 is no effect and 10 is complete control
[12] = Rate 62 g/ha, Postemergence section, flood test species, scale of 0 to 10 where 0 is no effect and 10 is complete control
[13] = Rate 62 g/ha, headed Pre-emergence (flood test species), scale 0 to 10 (0 no effect, 10 complete control)
[14] = Rate 125 g/ha, Pre-emergence, flood test species, scale 0 to 10 where 0 is no effect and 10 is complete control
[15] = Rate 250 g/ha, Postemergence (flood test), scale 0 to 10, 0 is no effect, 10 is complete control
[16] = Rate 250 g/ha, Pre-emergence, flood-test species, scale 0 to 10, 0 is no effect, 10 is complete control
[17] = Rate 500 g/ha, listed under Postemergence (flood test species), scale 0 to 10

Compound: C=CCn1c(=O)on(C(=O)N(c2ccc(F)cc2)C(C)C)c1=O [Compound 146]
- Nutsedge plant response rating (purple nutsedge; [1]): 0
- Nutsedge plant response rating (purple nutsedge; [2]): 0
- Nutsedge plant response rating (purple nutsedge; [3]): 0
- Nutsedge plant response rating (0 to 10 scale) (purple nutsedge; [4]): 0
- Nutsedge plant response rating (purple nutsedge; [5]): 0
- Nutsedge plant response rating (purple nutsedge; [6]): 3
- Nutsedge plant response rating (purple nutsedge; [7]): 0
- Nutsedge plant response rating (purple nutsedge; [8]): 0
- Plant response rating, Nutsedge (purple nutsedge; [9]): 0
- Nutsedge plant response rating (purple nutsedge; [10]): 6
- Wild oats plant response rating (wild oat; [1]): 3
- Wild oats plant response rating (wild oat; [2]): 1
- Wild oats plant response rating (wild oat; [3]): 9
- Wild oats plant response rating (0 to 10 scale) (wild oat; [4]): 10
- Wild oats plant response rating (wild oat; [5]): 10
- Wild oats plant response rating (wild oat; [6]): 10
- Wild oats plant response rating (wild oat; [8]): 2
- Plant response rating, Wild oats (wild oat; [9]): 6
- Wild oats plant response rating (wild oat; [10]): 7
- Rape plant response rating (rape; [1]): 2
- Rape plant response rating (rape; [2]): 0
- Rape plant response rating (rape; [3]): 2
- Rape plant response rating (0 to 10 scale) (rape; [4]): 10
- Rape plant response rating (rape; [5]): 10
- Rape plant response rating (rape; [6]): 10
- Rape plant response rating (rape; [7]): 0
- Rape plant response rating (rape; [8]): 2
- Plant response rating, Rape (rape; [9]): 3
- Rape plant response rating (rape; [10]): 5
- S. Flatsedge plant response rating (smallflower flatsedge; [11]): 0
- S. Flatsedge plant response rating (smallflower flatsedge; [12]): 0
- S. Flatsedge plant response rating (smallflower flatsedge; [13]): 0
- S. Flatsedge plant response rating (smallflower flatsedge; [14]): 0
- Plant response rating, S. Flatsedge (smallflower flatsedge; [15]): 3
- S. Flatsedge plant response rating (smallflower flatsedge; [16]): 0
- S. Flatsedge plant response rating (smallflower flatsedge; [17]): 9
- S. Flatsedge plant response rating (smallflower flatsedge; Rate 500 g/ha, Pre-emergence, flood test species, scale 0 to 10 (0 no effect, 10 complete control)): 1
- Redroot pigweed plant response rating (pigweed; [1]): 6
- Redroot pigweed plant response rating (pigweed; [2]): 10
- Redroot pigweed plant response rating (pigweed; [3]): 10
- Redroot pigweed plant response rating (0 to 10 scale) (pigweed; [4]): 10
- Redroot pigweed plant response rating (pigweed; [5]): 10
- Redroot pigweed plant response rating (pigweed; [6]): 10
- Redroot pigweed plant response rating (pigweed; [7]): 0
- Redroot pigweed plant response rating (pigweed; [8]): 4
- Plant response rating, Redroot pigweed (pigweed; [9]): 6
- Redroot pigweed plant response rating (pigweed; [10]): 8
- Crabgrass plant response rating (crabgrass; [1]): 9
- Crabgrass plant response rating (crabgrass; [2]): 5
- Crabgrass plant response rating (crabgrass; [3]): 8
- Crabgrass plant response rating (0 to 10 scale) (crabgrass; [4]): 8
- Crabgrass plant response rating (crabgrass; [5]): 9
- Crabgrass plant response rating (crabgrass; [6]): 10
- Crabgrass plant response rating (crabgrass; [7]): 5
- Crabgrass plant response rating (crabgrass; [8]): 8
- Plant response rating, Crabgrass (crabgrass; [9]): 9
- Crabgrass plant response rating (crabgrass; [10]): 9
- Corn plant response rating (corn; [1]): 0
- Corn plant response rating (corn; [2]): 0
- Corn plant response rating (corn; [3]): 3
- Corn plant response rating (0 to 10 scale) (corn; [4]): 5
- Corn plant response rating (corn; [5]): 8
- Corn plant response rating (corn; [6]): 9
- Corn plant response rating (corn; [7]): 0
- Corn plant response rating (corn; [8]): 0
- Plant response rating, Corn (corn; [9]): 0
- Corn plant response rating (corn; [10]): 0
- Ducksalad plant response rating (duck salad; [11]): 3
- Ducksalad plant response rating (duck salad; Rate 31 g/ha, Postemergence section (flood test species), scale 0 to 10): 0
- Ducksalad plant response rating (duck salad; [12]): 2
- Ducksalad plant response rating (duck salad; [13]): 0
- Ducksalad plant response rating (duck salad; [14]): 0
- Plant response rating, Ducksalad (duck salad; [15]): 5
- Ducksalad plant response rating (duck salad; [16]): 0
- Plant response rating, Ducksalad (duck salad; Rate 500 g/ha, headed Pre-emergence (flood test species), scale 0 to 10 (0 no effect, 10 complete control)): 1
- Ducksalad plant response rating (duck salad; [17]): 6
- Sugarbeets plant response rating (sugar beet; [1]): 3
- Sugarbeets plant response rating (sugar beet; [2]): 5
- Sugarbeets plant response rating (sugar beet; [3]): 8
- Sugarbeets plant response rating (0 to 10 scale) (sugar beet; [4]): 9
- Sugarbeets plant response rating (sugar beet; [5]): 10
- Sugarbeets plant response rating (sugar beet; [6]): 10
- Sugarbeets plant response rating (sugar beet; [8]): 1
- Plant response rating, Sugarbeets (sugar beet; [9]): 4
- Sugarbeets plant response rating (sugar beet; [10]): 6
- Velvetleaf plant response rating (velvetleaf; [1]): 2
- Velvetleaf plant response rating (velvetleaf; [2]): 3
- Velvetleaf plant response rating (velvetleaf; [3]): 7
- Velvetleaf plant response rating (0 to 10 scale) (velvetleaf; [4]): 7
- Velvetleaf plant response rating (velvetleaf; [5]): 8
- Velvetleaf plant response rating (velvetleaf; [6]): 8
- Velvetleaf plant response rating (velvetleaf; [8]): 0
- Plant response rating, Velvetleaf (velvetleaf; [9]): 6
- Velvetleaf plant response rating (velvetleaf; [10]): 6
- Cocklebur plant response rating (cocklebur; [1]): 2
- Cocklebur plant response rating (cocklebur; [2]): 0
- Cocklebur plant response rating (cocklebur; [3]): 0
- Cocklebur plant response rating (0 to 10 scale) (cocklebur; [4]): 0
- Cocklebur plant response rating (cocklebur; [5]): 0
- Cocklebur plant response rating (cocklebur; [6]): 0
- Cocklebur plant response rating (cocklebur; [7]): 0
- Cocklebur plant response rating (cocklebur; [8]): 2
- Plant response rating, Cocklebur (cocklebur; [9]): 3
- Cocklebur plant response rating (cocklebur; [10]): 4
- Wheat plant response rating (wheat; [1]): 2
- Wheat plant response rating (wheat; [2]): 0
- Wheat plant response rating (wheat; [3]): 2
- Wheat plant response rating (0 to 10 scale) (wheat; [4]): 2
- Wheat plant response rating (wheat; [5]): 8
- Wheat plant response rating (wheat; [6]): 8
- Wheat plant response rating (wheat; [8]): 0
- Plant response rating, Wheat (wheat; [9]): 5
- Wheat plant response rating (wheat; [10]): 6
- B. signalgrass plant response rating (surinam grass; [1]): 8
- B. signalgrass plant response rating (surinam grass; [2]): 7
- B. signalgrass plant response rating (surinam grass; [3]): 9
- B. signalgrass plant response rating (0 to 10 scale) (surinam grass; [4]): 9
- B. signalgrass plant response rating (surinam grass; [5]): 10
- B. signalgrass plant response rating (surinam grass; [6]): 10
- B. signalgrass plant response rating (surinam grass; [7]): 0
- B. signalgrass plant response rating (surinam grass; [8]): 4
- Plant response rating, B. signalgrass (surinam grass; [9]): 8
- B. signalgrass plant response rating (surinam grass; Rate 500 g/ha, Postemergence, scale of 0 to 10 where 0 is no effect and 10 is complete control): 9
- Bedstraw plant response rating (bedstraw; [1]): 6
- Bedstraw plant response rating (bedstraw; [2]): 0
- Bedstraw plant response rating (bedstraw; [3]): 9
- Bedstraw plant response rating (0 to 10 scale) (bedstraw; [4]): 9
- Bedstraw plant response rating (bedstraw; [5]): 10
- Bedstraw plant response rating (bedstraw; [6]): 7
- Bedstraw plant response rating (bedstraw; [7]): 0
- Bedstraw plant response rating (bedstraw; [8]): 2
- Plant response rating, Bedstraw (bedstraw; [9]): 7
- Bedstraw plant response rating (bedstraw; Rate 500 g/ha, Postemergence, scale 0 to 10, 0 no effect, 10 complete control): 8
- Morningglory plant response rating (morningglory; [1]): 5
- Morningglory plant response rating (morningglory; [2]): 0
- Morningglory plant response rating (morningglory; [3]): 2
- Morningglory plant response rating (0 to 10 scale) (morningglory; [4]): 3
- Morningglory plant response rating (morningglory; [5]): 3
- Morningglory plant response rating (morningglory; [6]): 4
- Morningglory plant response rating (morningglory; [7]): 2
- Morningglory plant response rating (morningglory; [8]): 3
- Plant response rating, Morningglory (morningglory; [9]): 8
- Morningglory plant response rating (morningglory; [10]): 9
- Blackgrass plant response rating (blackgrass; [1]): 8
- Blackgrass plant response rating (blackgrass; [2]): 7
- Blackgrass plant response rating (blackgrass; [3]): 8
- Blackgrass plant response rating (0 to 10 scale) (blackgrass; [4]): 10
- Blackgrass plant response rating (blackgrass; [5]): 10
- Blackgrass plant response rating (blackgrass; [6]): 10
- Blackgrass plant response rating (blackgrass; [7]): 4
- Blackgrass plant response rating (blackgrass; [8]): 8
- Plant response rating, Blackgrass (blackgrass; [9]): 8
- Blackgrass plant response rating (blackgrass; [10]): 8
